Consider five compounds from ChEMBL document CHEMBL1131225, “Macrocyclic amino carboxylates as selective MMP-8 inhibitors” (J Med Chem, 1998).

One assay addresses Neutrophil collagenase (Homo sapiens, UniProt P22894). Description: Inhibition of Matrix metalloprotease-8.
In assay [1] the target is 72 kDa type IV collagenase (Homo sapiens, UniProt P08253). Nature of the assay: Inhibition of Matrix metalloprotease-2.
Assay [2] has as its target Matrix metalloproteinase-9 (Homo sapiens, UniProt P14780). Description: Inhibition of Matrix metalloprotease-9.
The target in the next assay is T1, Interstitial collagenase (Homo sapiens, UniProt P03956).
T1 sequence (P03956 whole entry): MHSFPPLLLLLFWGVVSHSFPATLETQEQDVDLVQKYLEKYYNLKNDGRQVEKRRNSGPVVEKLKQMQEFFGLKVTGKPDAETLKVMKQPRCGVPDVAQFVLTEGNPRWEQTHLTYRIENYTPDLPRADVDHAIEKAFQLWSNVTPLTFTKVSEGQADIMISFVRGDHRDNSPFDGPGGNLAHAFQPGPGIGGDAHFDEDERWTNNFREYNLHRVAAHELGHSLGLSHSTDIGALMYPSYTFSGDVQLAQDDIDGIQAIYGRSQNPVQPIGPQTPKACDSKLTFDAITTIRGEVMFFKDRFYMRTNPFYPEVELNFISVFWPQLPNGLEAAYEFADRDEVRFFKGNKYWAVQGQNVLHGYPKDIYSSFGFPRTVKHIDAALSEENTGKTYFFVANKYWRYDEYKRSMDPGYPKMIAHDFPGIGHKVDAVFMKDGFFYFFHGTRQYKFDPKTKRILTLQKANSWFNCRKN
Description: Inhibition of Matrix metalloprotease-1.

Another assay has as its target Stromelysin-1 (Homo sapiens, UniProt P08254). Description: Inhibition of Matrix metalloprotease-3.

Broadly, the Ki is the dissociation constant of the complex between target and ligand, obtained from inhibition or displacement. A lower Ki goes with higher affinity.

72 kDa type IV collagenase, sequence (P08253 whole entry): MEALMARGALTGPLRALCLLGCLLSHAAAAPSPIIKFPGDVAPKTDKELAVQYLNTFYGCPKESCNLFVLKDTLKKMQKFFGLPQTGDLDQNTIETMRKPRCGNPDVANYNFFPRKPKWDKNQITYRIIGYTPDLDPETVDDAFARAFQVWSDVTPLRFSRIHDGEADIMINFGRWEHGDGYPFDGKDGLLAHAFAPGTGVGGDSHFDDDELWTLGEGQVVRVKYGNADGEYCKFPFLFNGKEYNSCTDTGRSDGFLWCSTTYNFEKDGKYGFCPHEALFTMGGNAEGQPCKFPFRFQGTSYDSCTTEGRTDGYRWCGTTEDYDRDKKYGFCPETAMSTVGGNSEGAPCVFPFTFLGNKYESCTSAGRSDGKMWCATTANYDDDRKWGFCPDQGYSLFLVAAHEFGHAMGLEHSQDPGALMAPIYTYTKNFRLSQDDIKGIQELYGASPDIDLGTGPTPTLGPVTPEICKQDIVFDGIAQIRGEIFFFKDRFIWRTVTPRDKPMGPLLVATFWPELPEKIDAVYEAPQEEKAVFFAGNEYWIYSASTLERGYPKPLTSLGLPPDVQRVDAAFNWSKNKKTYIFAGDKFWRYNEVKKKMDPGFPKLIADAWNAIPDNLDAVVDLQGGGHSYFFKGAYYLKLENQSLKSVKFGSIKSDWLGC
Neutrophil collagenase, sequence (P22894 whole entry): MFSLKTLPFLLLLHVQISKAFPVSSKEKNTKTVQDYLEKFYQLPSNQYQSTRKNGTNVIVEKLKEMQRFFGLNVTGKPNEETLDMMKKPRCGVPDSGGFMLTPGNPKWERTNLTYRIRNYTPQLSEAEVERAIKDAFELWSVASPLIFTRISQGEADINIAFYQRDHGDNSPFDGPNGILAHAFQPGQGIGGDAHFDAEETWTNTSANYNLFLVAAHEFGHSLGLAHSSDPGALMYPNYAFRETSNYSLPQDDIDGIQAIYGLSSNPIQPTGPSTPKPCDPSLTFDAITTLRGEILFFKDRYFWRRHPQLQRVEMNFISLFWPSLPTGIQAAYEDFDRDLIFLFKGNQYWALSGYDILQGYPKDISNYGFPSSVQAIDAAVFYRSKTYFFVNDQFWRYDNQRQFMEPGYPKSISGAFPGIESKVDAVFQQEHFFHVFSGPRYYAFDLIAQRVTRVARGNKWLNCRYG
Matrix metalloproteinase-9, sequence (P14780 whole entry): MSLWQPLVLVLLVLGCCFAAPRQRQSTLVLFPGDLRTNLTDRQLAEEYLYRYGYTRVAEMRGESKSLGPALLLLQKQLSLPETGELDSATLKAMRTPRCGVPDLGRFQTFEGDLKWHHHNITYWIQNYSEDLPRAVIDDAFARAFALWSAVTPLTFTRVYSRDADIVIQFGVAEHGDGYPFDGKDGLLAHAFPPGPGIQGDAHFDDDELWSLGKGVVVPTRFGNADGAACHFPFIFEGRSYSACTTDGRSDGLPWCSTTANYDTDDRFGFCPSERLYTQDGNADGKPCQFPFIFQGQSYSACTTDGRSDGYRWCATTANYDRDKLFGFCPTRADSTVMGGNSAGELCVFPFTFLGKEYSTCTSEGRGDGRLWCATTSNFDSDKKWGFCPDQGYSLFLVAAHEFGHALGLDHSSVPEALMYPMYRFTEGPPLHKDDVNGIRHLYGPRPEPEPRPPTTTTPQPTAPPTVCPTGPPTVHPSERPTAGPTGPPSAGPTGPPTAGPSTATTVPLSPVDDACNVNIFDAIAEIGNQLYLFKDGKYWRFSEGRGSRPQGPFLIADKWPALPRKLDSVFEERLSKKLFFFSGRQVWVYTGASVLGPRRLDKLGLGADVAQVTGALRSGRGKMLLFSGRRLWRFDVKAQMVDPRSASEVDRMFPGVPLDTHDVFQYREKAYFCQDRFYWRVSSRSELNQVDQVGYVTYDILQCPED
Stromelysin-1, sequence (P08254 whole entry): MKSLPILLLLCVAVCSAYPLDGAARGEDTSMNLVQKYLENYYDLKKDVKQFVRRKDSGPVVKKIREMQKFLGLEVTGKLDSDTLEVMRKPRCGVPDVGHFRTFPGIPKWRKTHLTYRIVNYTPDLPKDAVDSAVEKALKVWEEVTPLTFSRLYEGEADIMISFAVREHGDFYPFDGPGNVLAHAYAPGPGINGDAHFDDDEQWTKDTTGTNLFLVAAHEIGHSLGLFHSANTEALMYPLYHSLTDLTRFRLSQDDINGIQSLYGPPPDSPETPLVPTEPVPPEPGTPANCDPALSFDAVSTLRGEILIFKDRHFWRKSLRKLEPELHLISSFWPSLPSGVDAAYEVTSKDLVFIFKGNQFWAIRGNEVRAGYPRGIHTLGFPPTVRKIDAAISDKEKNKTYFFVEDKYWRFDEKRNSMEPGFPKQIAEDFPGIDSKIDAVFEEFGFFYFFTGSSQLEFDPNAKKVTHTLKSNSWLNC

As to `CNC(=O)[C@@H]1CCC(=O)OCCNC(=O)CC[C@H](C(=O)O)N[C@@H](CCc2ccccc2)C(=O)N1`, the Ki at Neutrophil collagenase stood at 10 nM; in assay [1], 238 nM; in assay [2], 5800 nM; on Interstitial collagenase, 8400 nM; on Stromelysin-1, 2900 nM.

Consider `CNC(=O)[C@@H]1CCCCNC(=O)C[C@H](C(=O)O)N[C@@H](CCc2ccccc2)C(=O)N1`, for which the Ki at Neutrophil collagenase was 531 nM; in assay [1] it was 2400 nM; in assay [2] it was 9800 nM; at Interstitial collagenase, 900 nM; at Stromelysin-1, 35000 nM.

`CNC(=O)[C@@H]1CCCCNC(=O)CC[C@H](C(=O)O)N[C@@H](CCc2ccc(-c3ccccc3)cc2)C(=O)N1`: the Ki at Neutrophil collagenase was determined as 9 nM; in assay [1], 249 nM; in assay [2], 288 nM; at Interstitial collagenase it was 1450 nM; at Stromelysin-1, 2400 nM.

For the compound `CNC(=O)CC[C@@H](N[C@@H](CCc1ccccc1)C(=O)N[C@@H](CCCCNC(C)=O)C(=O)NC)C(=O)O`, the Ki on Neutrophil collagenase was determined as 293 nM; in assay [1], 1530 nM; in assay [2], 404 nM; at Stromelysin-1 it was 14100 nM.

Consider `CNC(=O)[C@@H]1CCCCNC(=O)CC[C@H](C(=O)O)N[C@@H](CCc2ccccc2)C(=O)N1`, for which the Ki came to 17 nM on Neutrophil collagenase, 8100 nM in assay [1], 6600 nM in assay [2] and 13500 nM at Stromelysin-1.
